“And” between values parts separate entries of the source, which are not always exact repeats. Identical values can stand only once. Like-named read-outs stand apart in the source and are kept apart here. Marks after values point to notes of the source that are not given here.
Assays:
[1] = Clinical chemistries in mice after acute oral doses; format: in vivo, mouse
[2] = tested on: marginal zone and germinal centers of the spleen; assay: Rat spleen marginal zone width (H&E) and germinal center area (BCL-6 staining); format: in vivo; conditions: IV or PO, 48 hours
Description: Column plots of the area per spleen of BCL-6 staining of 5 micron fixed spleen sections as a measure of germinal center numbers given as average per section are shown.
Formalin-fixed spleens were cross-sectioned in 5 pieces, trimmed and embedded in paraffin, sectioned and stained with hematoxylin and eosin (H&E). Measurements of the periarteriolar lymphoid sheath (PAL) diameter and the width of the marginal zone (MZ) in areas of white pulp that had PAL with the greatest diameter were measured using an ocular micrometer. BCL-6 immunohistochemical staining in rat spleens was evaluated to determine GC area using automated image analysis methods.

[3] = tested on: lymphocytes, neutrophils; assay: Rat complete blood count 48 hours after IV or PO dexamethasone; format: in vivo; conditions: male Lewis rats
Description: FIG. 7. […] Data in FIGS. 3, 4, and 6 are from the same rats. […] Oral (left) and IV (right) doses were administered 1×48 hours before blood withdrawal.

[4] = tested on: germinal centers; assay: Germinal centers in mouse spleen, FITC-PNA immunofluorescence; format: in vivo; conditions: HED
Description: FIG. 2. […] A graph of column plots of average Germinal Center staining intensity measured using immunofluorescent staining of fresh thick spleen sections stained with FITC-PNA is shown. Immunofluorescent intensity was calculated using thresholding and MetaMorph Image Analysis. Columns are average plus SEM.
The spleens were removed, weighed wet, and then fixed in 10% formalin. Subsequently the spleens were sectioned via proprietary methods and then incubated with FITC-PNA at 4 degC for 24 hours, washed, placed on slides and immunofluorescent images were captured. Metamorph software was used to quantify the immunofluorescent signal.

[5] = tested on: IL-2, IL-15, IL-6; conditions: oral 3 mg/kg, 48 hours
Description: Blood was drawn before drug treatment and 48 hours post-treatment for CBC analysis and flow cytometry to determine lymphocyte and other blood cell populations. Serum was analyzed for cytokine levels.

[6] = A20 tumor bearing mice, cell counts by CBC analyzer and chemistry (Table 2); conditions: A20 tumor bearing male mice, 15 mg/kg HED on day 28, animals 12 and 7
[7] = tested on: peripheral blood lymphocytes
Description: Each patient's pre-treatment values are connected to post-treatment values by a connecting line.
Each patient's pre-treatment values are connected to post-treatment values by a connecting line. […] HSCs are identified by being CD34+CD38−.
Blood was drawn before drug treatment and 48 hours post-treatment for CBC analysis and flow cytometry to determine lymphocyte and other blood cell populations. […] For one patient, pre-treatment CBCs were not drawn and thus normalized flow cytometry data is shown for only 3 patients.

[8] = mouse, in vivo, 15 mg/kg
[9] = A20 B cell lymphoma mouse model, toxicity (body weight, deaths); conditions: 15 mg/kg dexamethasone base HED
Description: (§1) In the present study, mice were housed, inoculated and treated in the same way as reported in the Bascus et al. (2016) study. […] Tumor volume (mm^3) was measured every 2-3 days.

[10] = Double-blind controlled horse trial, adverse effects; format: in vivo; conditions: acute high dose; out to 70 days
[11] = HED, cited from earlier work
[12] = tested on: peripheral blood lymphocytes; assay: Repeat of Hinrichs dexamethasone dosing, peripheral blood lymphocytes by flow cytometry; format: in vivo; design: reduction of Tregs / reduction of NK cells / reduction of CD3+ T lymphocytes / reduction of CD3+CD4+ T lymphocytes / reduction of CD3+CD8 T lymphocytes: concentration or dose not given beside the values
[13] = tested on: hematopoietic stem cells; assay: Live hematopoietic stem cells in naive mice 48 hours after treatment; conditions: high doses
[14] = tested on: peripheral blood lymphocytes; assay: Mouse complete blood count and flow cytometry 24-48 hours after oral dexamethasone
Description: CD3 and CD4 positive lymphocytes. […] Relative counts/ul=flow cytometry and complete blood count combined. […] Doses are shown as HED (human equivalent dose). A one-way ANOVA followed by Tukey's test was incorporated to determine statistical significance between the treatment groups; * p<0.05, ** p<0.01, *** p<0.001.
Treg lymphocytes were identified by being CD3+CD4+CD25+FoxP3+. Relative counts/ul=flow cytometry and complete blood counts combined. […] Doses are shown as HED (human equivalent dose). A one-way ANOVA followed by post-hoc Tukey's test was incorporated to determine statistical significance between the treatment groups; * p<0.05, ** p<0.01.
NK cells were identified by being CD3−CD49b+. B lymphocytes were identified by being CD3−B220+. Relative counts/ul=flow cytometry and complete blood counts combined. […] Doses are shown as HED (human equivalent dose). A one-way ANOVA followed by post-hoc Tukey's test was incorporated to determine statistical significance between the treatment groups; * p<0.05, ** p<0.01; *** p<0.001.
Cells/ul=absolute numbers obtained from complete blood counts (CBC). […] Doses are shown as HED (human equivalent dose).
Cells/ul=absolute numbers obtained from CBC. […] Doses are shown as HED (human equivalent dose).

[15] = tested on: A20 B cell lymphoma; assay: A20 B cell lymphoma mouse model, tumor volume; format: in vivo; conditions: 15 mg/kg HED on days 7, 10, 18, 23, 24, 28, 35, 42
Description: as §1

[16] = mouse, in vivo
Description: To another group of mice Cy was administered IP at 166 mg/kg (HED 500 mg/m2) on day −5 and day −4 and Fludarabine 10 mg/kg (HED 30 mg/m2) on days −5, −4, −3, −2.

[17] = tested on: multiple myeloma and other cancer cell lines; assay: Direct tumor killing of cancer cell lines; format: cell-based; conditions: about 1.6 mg/kg HED in a 48 hour period; maintained but not increased up to about 12 mg/kg HED
[18] = in vivo; cited from earlier work
[19] = tested on: spleen weights, germinal centers; conditions: mice, po daily for 13 weeks; cited from earlier work
[20] = tested on: B lymphocytes; assay: Treatment of patients with autoimmune diseases (paper examples 5 and 9); format: in vivo, human; conditions: acute high dose, patient with an autoimmune disease
Description: Acute high dose prednisone doses range from about 19 mg/kg to about 150 mg/kg, with doses between about 56 mg/kg and about 112 mg/kg being preferred, with a repeat (second) administration of this dose 24 hours later and an optional repeat (third) administration of this dose 48-72 hours after the initial dose.

[21] = human, in vivo; cited from earlier work
[22] = oral, 12 mg/kg HED group vs placebo, 24-48 hours

C[C@@H]1C[C@H]2[C@@H]3CCC4=CC(=O)C=C[C@]4(C)[C@@]3(F)[C@@H](O)C[C@]2(C)[C@@]1(O)C(=O)CO [dexamethasone]
clinical chemistry levels including cholesterol and total protein ([1]; acute oral doses, HED 6-12 mg/kg): do not elevate clinical chemistry levels out of normal range | glucose level ([1]; after acute high dose): not elevated over the normal range | dose of maximal inhibition of germinal center area [2]: 12.9 mg/kg HED | dose of maximal inhibition of marginal zone [2]: 12.9 mg/kg HED | RBCs, platelets, Hct, HgB [3]: not affected | neutrophil number ([3]; all doses): increased by all doses | acute dose from which germinal centers are reduced [4]: ≥ 6 mg/kg | acute dose from which germinal centers are reduced ([4]; listed as Dexamethasone): ≥ 3 mg/kg | IL-6 level [5]: not elevated in any patient | patients with increased serum IL-2 and/or IL-15 levels [5]: 100% | BAS % [6]: 0% | EOS % [6]: 0% | Meta % [6]: 0% | BASCT ([6]; 15 mg/kg): 38 and 57 | CA ([6]; 15 mg/kg): 9.9 and 10.0 | EOSCT ([6]; 15 mg/kg): 158 and 92 | LYM % ([6]; 15 mg/kg): 30% and 53% | MON % ([6]; 15 mg/kg): 0% and 3% | NEU % ([6]; 15 mg/kg): 70% and 44% | NEUCT ([6]; 15 mg/kg): 550 and 280 | TP ([6]; 15 mg/kg): 5.5 and 5.4 | WBC ([6]; 15 mg/kg): 860 and 1150 | patients showing lymphocytosis ([7]; 3 mg/kg HED): 50% | hematopoietic stem cells (CD34+CD38−) ([7]; human, in vivo, po, 3 mg/kg): spared | CRE [8]: 0.5 | GGT [8]: 0 | NRBC [8]: 0* | mice that died from the treatment [9]: no mice died | adverse side effects [10]: no adverse side effects were observed | lowest lethal dose ([11]; healthy mice): 114 mg/kg | lowest lethal dose ([11]; tumor bearing mice): 43 mg/kg | CD3+ T lymphocytes, live events ([12]; intraperitoneal 10 mg/kg (HED 0.81 mg/kg) on day −6, −4, −2, vehicle 3370): 2441 live events | CD3-CD19+ B lymphocytes in the peripheral blood, live events by flow cytometry ([12]; intraperitoneal 10 mg/kg (HED 0.81 mg/kg) on day −6, −4, −2, vehicle control 10680): 3733 live events | reduction of B lymphocytes ([12]; intraperitoneal 10 mg/kg (HED 0.81 mg/kg) on day −6, −4, −2, vs vehicle, significant): 65% | reduction of CD3+ T lymphocytes ([12]; same dosing, non-significant): 33% | reduction of CD3+CD4+ T lymphocytes ([12]; same dosing, non-significant): 50% | reduction of CD3+CD8 T lymphocytes ([12]; same dosing, non-significant): 3% | reduction of NK cells ([12]; same dosing, non-significant): 17% | reduction of Tregs ([12]; same dosing, non-significant): 65% | CD3+CD4+CD25+FoxP3+ Tregs, live events ([12]; same dosing, vehicle 198): 70 live events | CD3+CD8 T lymphocytes, live events ([12]; same dosing, vehicle 1318): 1277 live events | CD3+CD4+ T lymphocytes, live events ([12]; same dosing, vehicle 1779): 902 live events | number of live hematopoietic stem cells [13]: did not significantly alter | reduction in CD4+, CD8+, Tregs and B cells population ([14]; naive mouse and rat models, high doses, 48 hours after administration, preliminary): ~98% | HED dose giving almost complete lymphoablation ([14]; normal mice, oral): greater than 12 mg/kg | absolute neutrophils ([14]; oral HED 3-17.5 mg/kg, 24-48 hours): does not affect | absolute RBCs and platelets ([14]; oral HED 3-17.5 mg/kg, 48 hours): does not affect | reduction in B lymphocytes (CD3−B220+) [14, 22]: 83% | reduction in CD3+ T lymphocytes [14, 22]: 65% | reduction in CD4+ T lymphocytes [14, 22]: 75% | reduction in CD8+ T lymphocytes [14, 22]: 56% | reduction in NK cells (CD3−CD49b+) [14, 22]: 87% | reduction in Tregs (CD3+CD4+CD25+FoxP3+) [14, 22]: 78% | reduction in absolute lymphocyte count ([14]; oral, C57B1 male mice vs placebo, 24 to 48 hours, dose group not stated): 84% | efficacy in terms of tumor volume control compared with CHOP [15]: greater than 1 cycle of CHOP, but not quite as effective as 2 cycles of CHOP | body weight as a general measure of toxicity [16]: did not impact body weight | direct tumor killing [17]: about 50%

C[C@]12C=CC(=O)C=C1CC[C@@H]1[C@@H]2C(=O)C[C@@]2(C)[C@H]1CC[C@]2(O)C(=O)CO [prednisone]
biologic half-life [18]: about 20 hours | dose above which spleen weights or germinal centers are significantly impacted [19]: over 2.5 mg/kg | reduction of B lymphocyte numbers [20]: greater than 90% | reduction of memory B cell populations [20]: greater than 90%

alemtuzumab: anti-CD52 lymphocyte depletional agent
patients who developed (primarily thyroid) autoimmunity [21]: two thirds

From US12048705B2, “Immunoablative therapies” (AVM Biotechnology, LLC, priority 2018, dated 2024)
